In patent publication US20210122724A1, “TETRACARBOXYLIC DIANHYDRIDE, CARBONYL COMPOUND, POLYIMIDE PRECURSOR RESIN, AND POLYIMIDE” (ENEOS Corporation, priority 2018, published 2021):

Assay: Solubility of tetracarboxylic dianhydride in organic solvent (visual, 50 mg sample)
Assay type: physicochemical
Method: As the samples, the tetracarboxylic dianhydride (exo/exo type BzDA) obtained in Example 2 and the tetracarboxylic dianhydride (endo/endo type BzDA) obtained in Comparative Example 2 were separately used to confirm the solubility of each tetracarboxylic dianhydride in an organic solvent as follows. Specifically, after 50 mg of the sample was added to a screw tube, an organic solvent was added little by little into the screw tube, and the amount of the sample dissolved was visually confirmed. Note that, as the organic solvents, N,N′-dimethylacetamide and N-methyl-2-pyrrolidone were used to confirm the solubility in the solvents.

concentration of solution that can be prepared (solubility) (solvent N,N′-dimethylacetamide) [% by mass] | concentration of solution that can be prepared (solubility) (solvent N-methyl-2-pyrrolidone) [% by mass] | SMILES
≥ 5 | ≥ 5 | O=C1OC(=O)C2C3CC(CC3c3ccc(C4CC5CC4C4C(=O)OC(=O)C54)cc3)C12 (stereo not drawn) [exo/exo type BzDA, exo,exo-5,5′-(1,4-phenylene)bis(bicyclo[2.2.1]heptane-2,3-exo-dicarboxylic anhydride)]
< 1 | < 3.5 | O=C1OC(=O)C2C3CC(CC3c3ccc(C4CC5CC4C4C(=O)OC(=O)C54)cc3)C12 (stereo not drawn) [endo/endo type BzDA]
